This is an account of results in publication PMC4947679, “Quantitative In Vitro and In Vivo Evaluation of Intestinal and Blood-Brain Barrier Transport Kinetics of the Plant N-Alkylamide Pellitorine” (BioMed Research International, 2016).

Usually Papp A→B stands for the apparent permeability from the apical to the basolateral side of a cell layer. The low end stands for slow passage, the high end for fast passage.

A short description of data set [1]: Caco-2 cell permeability assay. To be noted: human, Caco-2; positive (high permeability) control, 20 μM. In kind it is in vitro ADME, human. How it is done: The Caco-2 cell line originated from a human colorectal carcinoma and was maintained in Dulbecco's modified Eagle's medium (DMEM) (95% humidity, 37°C, 5% CO2), supplemented with 10% (V/V) fetal bovine serum, 100 U/mL penicillin and 100 μg/mL streptomycin, 2 mM L-glutamine, and 1% nonessential amino acids (all from Invitrogen/GIBCO, Ghent, Belgium).
The Caco-2 cell intestinal model was used to investigate the gut mucosa permeation of pellitorine. On each Transwell (Corning Costar, New York, USA) membrane insert filter (0.4 μm pore size, 12 mm filter diameter), the cells were seeded at a density of 2.6 · 10^5 cells/cm^2 cells and cultivated in the described supplemented DMEM. Every second day, the medium was changed. During a period of 21–29 days, the cells were grown and differentiated until monolayers were formed. The integrity of the monolayers was checked via the measurement of transepithelial electrical resistance (TEER) of the monolayers with a Millicell-ERS system (Millipore Corp., Bedford, MA, USA) before and after the transport experiments. The experiments were performed in duplicate for each dose solution. Transport experiments were carried out according to Hubatsch et al. in two directions: from the apical-to-basolateral (ab) direction and from the basolateral-to-apical (ba) direction in Hanks' Balanced Salt solution. Two dose solutions of pellitorine (in Anacyclus pyrethrum extract) of 1 μg/mL in 0.5% EtOH (further indicated as DS1) and of 56 μg/mL in 0.5% of a mixture of vitamin E-TPGS (33.3%), EtOH (11.1%), PEG 400 (33.3%), and PG (22.2%) (further indicated as DS2) dissolved in HBSS were tested.
Final apical volumes of 0.4 mL and basolateral volumes of 1.2 mL were used for 12 mm filter supports during the transport experiment. After 15, 30, 60, 90, and 120 min, samples were taken from the receiver compartment (basolateral to apical transport: 100 μL, apical-to-basolateral transport: 300 μL) and immediately replaced by fresh HBSS. […] Pellitorine was quantified using a ultraperformance liquid chromatography-tandem mass spectrometry (UPLC-MS^2) method as described below.
The apparent permeability coefficient (P app in cm/s) of pellitorine in DS2 was calculated using a sink condition equation, while P app of pellitorine in DS1 was calculated using a nonsink equation. From Fick's first law, J = −D × [dC(x)]/dx (J is the flux or transfer rate along the donor-to-receptor side, D is the diffusion coefficient, x is the distance from the donor compartment, and C(x) is the concentration in the barrier at the coordinate x in the barrier), the following differential equation is derived: dM r(t)/dt = P app × A × [C d(t) − C r(t)], in which P app is the apparent permeability coefficient (a product of distribution coefficient with diffusion coefficient divided by the barrier thickness), M r is the amount of substance in the receiver chamber, A is the cross-sectional area of the barrier, C d is the donor concentration, and C r is the receiver concentration. This differential equation can be solved to calculate P app using different initial conditions depending on sink or nonsink conditions. In case of sink conditions, the following equation was obtained from the amount of compound transported per time dM r(t)/dt with the receiver concentration set to zero [18, 20]:(1) Mrt/Cd,0=Papp×A×t+c, where P app is the apparent permeability coefficient (cm/s), A is the surface area of the filter (1.12 cm^2), C d,0 is the initial concentration in the donor chamber (μg/mL), t is the time (s), and c is a constant term which vanishes, since M r is initially zero at t = 0.
The donor concentration at each time point was calculated by taking into account the amount of compound which already permeated through the cell monolayer during that time interval. In this way, the reduction in donor concentration after every sampling was also taken into account.
In general terms: Caco-2 cells form a polarised layer with tight junctions and transporters.

A short description of data set [2]: Blood-to-brain transport, multiple time regression (MTR) analysis in mice. Particulars: mice, injection into jugular vein, MTR. On the procedure:
Seven-to-ten-week-old female, Institute for Cancer Research, Caesarean Derived-1 (ICR-CD-1) mice (Harlan Laboratories, Venray, Netherlands) weighing 29–32 g were used for the BBB transport experiments. The experiments were performed according to the Ethical Committee principles of laboratory animal welfare as approved by Ghent University (Faculty of Veterinary Medicine, number EC2014/128).
An in vivo multiple time regression (MTR) analysis was performed in order to determine whether pellitorine could enter the brain. A dose solution of 1.8 mg/mL pure pellitorine dissolved in 6.9% EtOH, 2.5% dimethylacetamide, and 0.5% tween 80 (all w/w) diluted in lactated Ringer's solution containing 1% BSA was prepared. After anesthetizing the mice intraperitoneally with a 40% (w/V) urethane solution (3 g/kg), the jugular internalis vein and carotid artery were isolated and 20 μL of the pellitorine dose solution was injected into the jugular vein. After 1, 3, 5, 10, 12.5, and 15 min after injection (with start and end in duplicate), blood was collected from the carotid artery. Immediately thereafter, the mice were decapitated and the brains were isolated. […] The serum concentrations of pellitorine were plotted against the time (expressed in min). The curve was fitted using a first-order kinetic, two-compartment model: C(t) = C 1 × e ^−α×t + C 2 × e ^−β×t, in which C is the concentration of pellitorine in serum at time t, α and β are hybrid constants, dependent on the rate constants k e (elimination rate constant), k 1,2 (rate constant between central and peripheral tissue compartment), k 2,1 (rate constant between peripheral tissue and central compartment), C 1 is the concentration obtained after extrapolation of the distribution phase α to the y-axis, and C 2 is the concentration obtained after extrapolation of the elimination phase β to the y-axis. The ratio of the pellitorine brain and serum concentration (μL/g) was plotted versus the exposure time (θ), which is a derived time variable of the Gjedde-Patlak plot, to determine the BBB influx kinetics of pellitorine.
The exposure time is computed as θ = ∫0 ^T((C s(t) · dt)/C s(T)) and is defined as the integral of the concentration of pellitorine in serum from start (t = 0 min) to time T, divided by the concentration of pellitorine in serum at time T. The integral of the concentration of pellitorine in serum from zero to time T is the area under the curve until time T.
The brain uptake of pellitorine was fitted using a biphasic model, as elaborated by Wong et al.: (4) CbrainT/CsTK·θ+Vg·1−e^−θ·K1−K/Vg+V0≅K=0Vg·1−e^−θ·K1/Vg+V0 in which C brain(T) is the concentration of pellitorine in the brain at time T (ng/g), C s(T) the concentration of pellitorine in serum at time T (ng/μL), K the net clearance (μL/(g·min)), V g the tissue brain distribution volume (μL/g), K 1 the unidirectional clearance from pellitorine from blood to brain (i.e., the unidirectional brain transfer coefficient, also referred to as influx rate) (μL/(g·min)), and V 0 the vascular brain distribution volume (μL/g).

On the set-up of data set [3]: method as in PMID 19399718. To be noted: oral gavage in rats; cited from earlier work.

Consider `CC(C)NCC(O)COc1cccc2ccccc12` (stereo not drawn) [propranolol, reference compound], for which the Papp A→B at 120 min, 20 μM in data set [1] turned out to be 19.1 ×10⁻⁶ cm/s.

Take Dermorphin [reference compound]: in data set [2], the “unidirectional influx rate K 1” value came to 0.26 µL/g/min.

Take “dodeca-2E,4E,8E,10E/Z-tetraenoic acid isobutylamides”: the elimination half-life in data set [3] is 1.20 h.
